Laboratory results from US5389661A, “Imidazole and 1,2,4-triazole derivatives with angiotensin II antagonist properties” (Warner-Lambert Company, priority 1994, dated 1995).

Target: T1, angiotensin II receptor (rat liver membranes) (Rattus norvegicus, UniProt P25095)
T1 construct: from tissue; host or cells: rat liver membranes
T1 sequence (P25095 1-359): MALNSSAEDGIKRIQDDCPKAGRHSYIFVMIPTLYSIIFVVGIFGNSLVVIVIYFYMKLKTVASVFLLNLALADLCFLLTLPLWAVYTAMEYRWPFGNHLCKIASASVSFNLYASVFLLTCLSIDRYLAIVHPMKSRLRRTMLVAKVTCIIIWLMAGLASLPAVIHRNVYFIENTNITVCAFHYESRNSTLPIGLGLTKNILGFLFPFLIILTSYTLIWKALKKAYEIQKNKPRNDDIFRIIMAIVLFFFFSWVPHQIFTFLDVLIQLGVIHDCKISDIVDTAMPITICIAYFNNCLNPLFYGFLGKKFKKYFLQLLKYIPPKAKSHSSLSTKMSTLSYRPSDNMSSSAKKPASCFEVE
Assay: RBAT1, Receptor Binding of Angiotensin II: inhibition of tritiated angiotensin II binding to rat liver membranes
Conditions: in vitro
Description: The effectiveness of the compounds of the instant invention is determined by a test (RBAT1) entitled Receptor Binding of Angiotensin II.

| SMILES | IC50 [nM] |
| --- | --- |
| CCCCc1ncc(C=C2C(=O)N(CCCC)c3ccccc32)n1Cc1ccc(C(=O)OC)cc1 [Example 4C, Benzoic acid, 4-[[2-butyl-5-[(1-butyl-2,3-dihydro-2-oxo-1H-indol-3-ylidene)methyl]-1H-imidazol-1-yl]methyl]-, methyl ester] | 358 |
| CCCc1nc(-n2cccc2)c(/C=C2/C(=O)N(C)c3ccccc32)n1Cc1ccc(C(=O)OC)cc1 [Example 4A, Benzoic acid, 4-[[5-[(2,3-dihydro-1-methyl-2-oxo-1H-indol-3-ylidene)methyl]-2-propyl-4-(1H-pyrrol-1-yl)-1H-imidazol-1-yl]methyl]-, methyl ester, (E)] | 640 |
| CCCCc1ncc(C=C2C(=O)N(OCC(=O)OC)c3ccccc32)n1Cc1ccc(C(=O)OC)cc1 [Example 4G] | 64 |
| CCCc1ncc(C=C2C(=O)N(C)c3ccccc32)n1Cc1ccc(C(=O)OC)cc1 [Example 1D, Methyl 4-[[2-propyl-5-[(1,2-dihydro-1-methyl-2-oxo-3H-indol-3-ylidene)methyl]-1H-imidazol-1-yl]methyl]benzoate] | 75 |
| CCCCc1ncc(C=C2C(=O)N(CCCC)c3ccccc32)n1Cc1ccc(C(=O)O)cc1Cl [Example 3H, 4-[[2-butyl-5-[(1-butyl-1,2-dihydro-2-oxo-3H-indol-3-ylidenyl)methyl]-1H-imidazol-1-yl]methyl]-3 chlorobenzoic acid] | 52 |
| CCCc1ncc(/C=C2\C(=O)N(CC(=O)OC)c3cccc(C)c32)n1Cc1ccc(C(=O)OC)cc1 [Example 4J, Methyl (Z)-2,3-dihydro-3-[[3-[[4-methoxycarbonylphenyl]methyl]-2-propyl-3H-imidazol-4-yl]methylene]-4-methyl-2-oxo-1H-indole-1-acetate] | 686 |
| CCCCc1ncc(C=C2C(=O)N(CC(=O)OCC)c3ccccc32)n1Cc1ccc(-c2nnn[nH]2)cc1 [Example 6A, 1H-Indole-1-acetic acid, 3-[[2-butyl-1-[[4-(1H-tetrazol-5-yl)phenyl]methyl]-1H-imidazol-5yl]methylene]-2,3-dihydro-2-oxo-, ethyl ester] | 12 |
| CCCCc1ncc(C=C2C(=O)N(CC(=O)O)c3ccccc32)n1Cc1ccc(C(=O)O)cc1 [Example 3C, 3-[[2-Butyl-1-[(4-carboxyphenyl)methyl]-1H-imidazol-5-yl]methylene]-2,3-dihydro-2-oxo-1H-indole-1-acetic acid] | 22 |
| CCCCc1ncc(C=C2C(=O)N(Cc3nn[nH]n3)c3ccccc32)n1Cc1ccc(C(=O)OC)cc1 [Example 5, Benzoic acid, 4-[[2-butyl-5-[[2,3-dihydro-2-oxo-1-(1H-tetrazol-5-ylmethyl)-1H-indol-3-ylidene]methyl]-1H-imidazol-1-yl]methyl]-, methyl ester, (E)] | 94 |
| CCCc1ncc(/C=C2/C(=O)N(CC(=O)O)c3ccccc32)n1Cc1ccc(C(=O)O)cc1 [Example 9, (E)-3-[[3-[(4-carboxyphenyl)methyl]-2-propyl-3H-imidazol-4-yl]methylene]-2,3-dihydro-2-oxo-1H-indole-1-acetic acid] | 98 |
| CCCCN1C(=O)/C(=C/c2c(-n3cccc3)nc(CCC)n2Cc2ccc(C(=O)OC)cc2)c2ccccc21 [Example 4, Benzoic acid, 4-[[5-[(1-butyl-2,3-dihydro-2-oxo-1H-indol-3-ylidene)methyl]-2=propyl-4=(1H-pyrrol-1-yl)-1H-imidazol-1-yl]methyl]-, methyl ester, (E)] | 590 |
| CCCc1ncc(/C=C2\C(=O)N(C(CCC)C(=O)OCC)c3cccc(C)c32)n1Cc1ccc(C(=O)OC)cc1 (racemic) [Example 4I, Ethyl (Z)-(±)-2,3,dihydro-3-[[3-[[4-(methoxycarbonylphenyl]methyl]-2-propyl-3H-imidazol-4-yl]methylene]-4-methyl-2-oxo-α-propyl-1H-indole-1-acetat] | 300 |
| CCCCc1ncc(C=C2C(=O)N(O)c3ccccc32)n1Cc1ccc(C(=O)OC)cc1 [Example 2C] | 201 |
| CCCc1ncc(/C=C2\C(=O)N(CC(=O)OC)C(=O)c3ccccc32)n1Cc1ccc(C(=O)OC)cc1 [Example 8, 2(1H)-Isoquinolineacetic acid, 3,4-dihydro-4-[[1-[[4-(methoxycarbonyl)phenyl]methyl]-2-propyl-1H-imidazol-5-yl]methylene]-1,3-dioxo-, methyl ester, (Z)] | 47 |
| CCCCc1ncc(CC2C(=O)Nc3ccccc32)n1Cc1ccc(C(=O)OC)cc1 (racemic) [Example 10, Benzoic acid, 4-[[2-butyl-5-[(2,3-dihydro-2-oxo-1H-indol-3-yl)methyl]-1H-imidazol-1-yl]methyl]-, methyl ester, (±)] | 53 |
| CCCc1nc(-n2cccc2)c(/C=C2/C(=O)Nc3ccccc32)n1Cc1ccc(C(=O)O)cc1 [Example 2D, (E)-4-[[5-[(1,2-dihydro-2-oxo-3H-indol-3-ylideny)methyl]-2-propyl-4-(1H-pyrrol-1-yl)-1H-imidazol-1-yl]methyl]benzoic acid] | 86 |

| SMILES | IC50 [nM] |
| --- | --- |
| CCCCc1ncc(C=C2C(=O)N(O)c3ccccc32)n1Cc1ccc(C(=O)O)cc1 [Example 3F] | 123 |
| CCCCc1ncc(C=C2C(=O)Nc3ccccc32)n1Cc1ccc(C(=O)O)cc1 [Example 3, 4-[[2-Butyl-5-[(1,12-dihydro-2-oxo-3H-indol-3-ylidene)methyl]-1H-imidazol-1-yl]methyl]benzoic acid] | 170 |
| CCCCc1ncc(C=C2C(=O)N(CC(=O)O)c3ccccc32)n1Cc1ccc(-c2nnn[nH]2)cc1 [Example 7, 3-[[2-butyl-3-[[4-(1H-tetrazol-5-yl)phenyl]methyl]-3H-imidazol-4-yl]methylene]-2,3-dihydro-2-oxo-1H-indole-1-acetic acid] | 5.7 |
| CCCCc1ncc(C=C2C(=O)N(CC#N)c3ccccc32)n1Cc1ccc(C(=O)OC)cc1 [Example 4H, Benzoic acid, 4-[[2-butyl-5-[[1-(cyanomethyl)-2,3-dihydro-2-oxo-1H-indol-3-ylidene]methyl]-1H-imidazol-1-yl]methyl]-, methyl ester, (E)] | 226 |
| CCCCc1ncc(C=C2C(=O)N(CCCC)c3ccccc32)n1Cc1ccc(C(=O)OC)cc1Cl [Example 4K, Methyl 4-[[2-butyl-5-[(1-butyl-1,2-dihydro-2-oxo-3H-indol-3-yliden)methyl]-1H-imidazolyl]methyl]-3-chlorobenzoate] | 110 |
| CCCCc1ncc(/C=C2/C(=O)N(Cc3ccc(Cl)cc3)c3ccccc32)n1Cc1ccc(C(=O)O)cc1 [Example 4F, Benzoic acid, 4-[[2-butyl-5-[[1-[(4-chlorophenyl)methyl]-2,3-dihydro-2-oxo-1H-indol-3-ylidene]methyl]-1H-imidazol-1-yl]methyl]-, (E)] | 256 |
| CCCCc1nc(Cl)c(/C=C2/C(=O)Nc3ccccc32)n1Cc1ccc(C(=O)O)cc1 [Example 3A, (E)-4-[[2-Butyl-4-chloro-5-[(1,2-dihydro-2-oxo-3H-indol-3-ylidene)]-1H-imidazol-1-yl]methyl]benzoic acid] | 140 |
| CCCCc1ncc(/C=C2/C(=O)N(CCC(=O)O)c3ccccc32)n1Cc1ccc(C(=O)O)cc1 [Example 3G, 1H-Indole-1-propanoic acid, 3-[[2-butyl-1-[(4-carboxyphenyl)methyl]-1H-imidazol-5-yl]methylene]-2,3-dihydro-2-oxo -, (E)] | 20 |
| CCCc1ncc(C=C2C(=O)N(CCC)c3ccccc32)n1Cc1ccc(C(=O)O)cc1 [Example 3I, 4-[[5-[(1,2-dihydro-2-oxo-1-propyl-3H-indol-3-ylidenyl)methyl]-2-propyl-1H-imidazol-1-yl]methyl]benzoic acid] | 140 |
| CCCc1ncc(C=C2C(=O)N(C(=O)NC)c3ccccc32)n1Cc1ccc(C(=O)OC)cc1 [Example 2B, Methyl 4-[[(2-propyl-5-[1,2-dihydro-1-(methylaminocarbonyl)-2-oxo-3H-indol-3-ylidene]methyl]-1H-imidazol-1-yl]methyl benzoate] | 610 |
| CCCc1ncc(C=C2C(=O)N(CCC)c3ccccc32)n1Cc1ccc(C(=O)OC)cc1 [Example 2G, Methyl 4-[[5-[(1,2-dihydro-2-oxo-1-propyl-3H-indol-3-ylidenyl)methyl]-2-propyl-1H-imidazol-1-yl]methyl]benzoate] | 746 |
| CCCc1ncc(/C=C2\C(=O)N(C(C)C)c3ccccc32)n1Cc1ccc(C(=O)OC)cc1 [Example 2F, Benzoic acid, 4-[[5-[[2,3-dihydro-1-(1-methylethyl)-2-oxo-1H-indol-3-ylidene]methyl]. -2-propyl-1H-imidazol-1-yl]methyl]-, methyl ester, (Z)] | 67 |
| CCCCc1ncc(C=C2C(=O)Nc3c(OC)cccc32)n1Cc1ccc(C(=O)O)cc1 [Example 3B, 4-[[2-Butyl-5-[(1,2-dihydro-7-methoxy-2-oxo-3H-indol-3-ylidene)methyl]-1H-imidazol-1-yl]methyl]benzoic acid] | 120 |
| CCCCc1ncc(C=C2C(=O)N(CC(=O)OC)c3ccccc32)n1Cc1ccc(-c2nn[nH]n2)cc1 [Example 6, 1H-Indole-1-acetic acid, 3-[[2-butyl-1-[[4-(1H-tetrazol-5-yl)phenyl]methyl]-1H-imidazol-5yl]methylene]-2,3-dihydro-2-oxo-, methyl ester] | 25 |
| CCCc1nc(-n2cccc2)c(/C=C2/C(=O)N(CC(=O)OC)c3ccccc32)n1Cc1ccc(C(=O)OC)cc1 [Example 4B, 1H-Indole-1-acetic acid, 2,3-dihydro-3-[[1-[[4-(methoxycarbonyl)phenyl]methyl]-2-propyl-4-(1H-pyrrol-1-yl)-1H-imidazol-5-yl]methylene]-2-oxo-, methyl ester, (E)] | 95 |
